# Like-named read-outs stand apart in the source and are kept apart here.
# Tests used:
# [1] = test system: Streptococcus pyogenes C 203; test: In vivo antibacterial activity, experimental pulmonary infection in mouse; details: for ED50: Streptococcus pyogenes, C203, ip, 240 h, intraperitoneal single dose, read-out: average protecting dose PD50
# Method: The in vivo antibacterial activity of the compounds of formula (I), expressed as average protecting dose PD50 (mg/Kg), was evaluated by means of experimental pulmonary infection induced in mouse by Streptococcus pyogenes (example 23).
# b) In vivo antibacterial activity
# The therapeutical effectiveness, expressed as average protecting dose (PD50), of the considered compounds of formula (I) was evaluated by experimental pulmonary infection induced in mouse by Streptococcus pyogenesC 203.
# Charles River albin mice (strain CD 1), of body weight comprised between 23-35 g, stabulated in groups of 6 for cage and normo-feeded with standard diet and water ad libitum were used. A suspension of S. pyogenes C 203 (corresponding about to 10^8 UFC) in tryptose broth (0.05 ml) was intranasally administered to each mouse anesthesized with a mixture of ethyl ether and chloroform.
# The compounds under examination were intraperitoneally administered as a single dose, in 0.2% Tween suspension, 24 hours before or 1 hour after the infection.
# Mice mortality observation was prolonged up to 10 days from the infection.
# PD50 calculation, expressed as (mg/Kg), was carried out through the analysis of probit.
# In vivo antibacterial activity, expressed as average protecting dose PD50 (mg/Kg), 24 hours before and 1 hour after the experimental pulmonary infection induced in mouse by Streptococcus pyogenes C 203, of the compounds 4, 10, 16-19, 21, 23, 26-27, 29-30, 33-35 and 38 and of the reference compounds Roxithromycin and Clarithromycin.
# [2] = test system: Klebsiella pneumoniae ZC 2; test: In vitro antibacterial activity, MIC, broth microdilution; type: cell-based; details: Klebsiella pneumoniae, ZC2; K. pneumoniae ZC 2; MHB; 37° C., 18 hours; read-out: minimum inhibiting concentration MIC
# Method: (§1) a) In vitro antibacterial activity The determination of the minimum inhibiting concentrations (MIC), with respect to Gram-positive and Gram-negative bacteria was carried out through the micromethod of gradual broth dilution in double series [National Committee for Clinical Laboratory Standards, 1990; Methods for dilution antimicrobial susceptibility tests for bacteria that grow aerobically; Approved standards […], Villanova, Pa.], by using Mueller Hinton Broth (MHB) as a culture medium. In the case of […] bacteria, horse serum at 5% (Streptococcus pneumoniae and Streptococcus pyogenes) was added to the medium. Roxithromycin and Clarithromycin [The Merck Index, XI Ed., No. 8253 and 2340, respectively] were used as reference macrolides. MIC, expressed as (μg/ml), were determined after incubation of the microplates at 37° C. for 18 hours, evaluating the lowest antibiotic concentration enabling the inhibition of bacterial development.
# [3] = test system: Staphylococcus aureus PV 14; test: as above; type: cell-based; details: Staphylococcus aureus, PV14; S. aureus PV 14; MHB; 37° C., 18 hours; read-out: minimum inhibiting concentration MIC
# Method: as §1
# [4] = test system: Streptococcus pyogenes C 203; test: as above; type: cell-based; details: Streptococcus pyogenes, C203; S. pyogenes C 203; MHB + 5% horse serum; 37° C., 18 hours; read-out: minimum inhibiting concentration MIC
# Method: as §1
# [5] = test system: Streptococcus pneumoniae BS 3; test: as above; type: cell-based; details: Streptococcus pneumoniae, BS3; S. pneumoniae BS 3; MHB + 5% horse serum; 37° C., 18 hours; read-out: minimum inhibiting concentration MIC
# Method: as §1
# [6] = test system: Escherichia coli ATCC 25922; test: as above; type: cell-based; details: Escherichia coli, ATCC25922; E. coli ATCC 25922; MHB; 37° C., 18 hours; read-out: minimum inhibiting concentration MIC
# Method: as §1
# [7] = test system: Streptococcus pneumoniae BS 4; test: as above; type: cell-based; details: Streptococcus pneumoniae, BS4; S. pneumoniae BS 4; MHB + 5% horse serum; 37° C., 18 hours; read-out: minimum inhibiting concentration MIC
# Method: as §1
# [8] = test system: Streptococcus pyogenes A 26; test: as above; type: cell-based; details: Streptococcus pyogenes, A26; S. pyogenes A 26; MHB + 5% horse serum; 37° C., 18 hours; read-out: minimum inhibiting concentration MIC
# Method: as §1
# [9] = test system: Enterococcus faecalis ATCC 29212; test: as above; type: cell-based; details: Enterococcus faecalis, ATCC29212; E. faecalis ATCC 29212; MHB; 37° C., 18 hours; read-out: minimum inhibiting concentration MIC
# Method: as §1
SMILES,ED50 ([1]; 1 hour after infection) [mg/kg],ED50 ([1]; 24 hours before infection) [mg/kg],"in vivo activity, pulmonary infection (in words) ([1]; administered 24 hours before the infection)",MIC [2] [µg/mL],MIC [3] [µg/mL],MIC [4] [µg/mL],MIC [5] [µg/mL],MIC [6] [µg/mL],MIC [7] [µg/mL],MIC [8] [µg/mL],MIC [9] [µg/mL]
"CC[C@H]1OC(=O)[C@H](C)[C@@H](O[C@H]2C[C@@](C)(OC)[C@@H](O)[C@H](C)O2)[C@H](C)[C@@H](O[C@@H]2O[C@H](C)C[C@H](N(C)C)[C@H]2O)[C@](C)(OC)C[C@@H](C)C(=O)[C@H](C)[C@@H](O)[C@]1(C)O [Clarithromycin, reference compound]",3.25,> 50,inactive,128,0.25,0.0078,0.0078,64,0.0156,0.0078,1
"CC[C@H]1OC(=O)[C@H](C)[C@@H](O[C@H]2C[C@@](C)(OC)[C@@H](O)[C@H](C)O2)[C@H](C)[C@@H](O[C@@H]2O[C@H](C)C[C@H](N(C)C)[C@H]2O)[C@](C)(O)C[C@@H](C)/C(=N\OCCNCCCCCCNCc2ccccc2)[C@H](C)[C@@H](O)[C@]1(C)O [Compound 4, Erythromycin A (E)-9-[0-[2-[6-(phenylmethylamino)hexylamino]ethyl]oxime]]",0.9,4.78,,16,0.25,0.0039,0.0156,4,0.0156,0.0156,4
"CC[C@H]1OC(=O)[C@H](C)[C@@H](O[C@H]2C[C@@](C)(OC)[C@@H](O)[C@H](C)O2)[C@H](C)[C@@H](O[C@@H]2O[C@H](C)C[C@H](N(C)C)[C@H]2O)[C@](C)(O)C[C@@H](C)/C(=N\OCCNCCCCCNCc2ccccc2)[C@H](C)[C@@H](O)[C@]1(C)O [Compound 10, Erythromycin A (E)-9-[0-[2-[5-(phenylmethylamino)pentylamino]ethyl]oxime]]",2.36,5.8,,16,0.5,0.0039,0.0156,4,0.0156,0.0078,4
"CC[C@H]1OC(=O)[C@H](C)[C@@H](O[C@H]2C[C@@](C)(OC)[C@@H](O)[C@H](C)O2)[C@H](C)[C@@H](O[C@@H]2O[C@H](C)C[C@H](N(C)C)[C@H]2O)[C@](C)(O)C[C@@H](C)/C(=N\OCCNCCCCCCNCc2ccc(F)cc2)[C@H](C)[C@@H](O)[C@]1(C)O [Compound 16, Erythromycin A (E)-9-[0-[2-[6-[(4-fluorophenyl)methylamino]hexylamino]ethyl]oxime]]",3.6,10.2,,8,0.25,0.0039,0.0156,2,0.0156,0.0156,4
"CC[C@H]1OC(=O)[C@H](C)[C@@H](O[C@H]2C[C@@](C)(OC)[C@@H](O)[C@H](C)O2)[C@H](C)[C@@H](O[C@@H]2O[C@H](C)C[C@H](N(C)C)[C@H]2O)[C@](C)(O)C[C@@H](C)/C(=N\OCCNCCCCCCNCc2ccc(OC)cc2)[C@H](C)[C@@H](O)[C@]1(C)O [Compound 17, Erythromycin A (E)-9-[0-[2-[6-[(4-methoxyphenyl)methylamino]hexylamino]ethyl]oxime]]",1.17,8.16,,16,0.25,0.0039,0.0312,4,0.0625,0.0625,4
